Results from US20240425483A1, “INDOLINES AS PROTAC COMPOUNDS” (NeoPhore Limited, priority 2021, published 2024).

Target: T1, PMS2 protein (Homo sapiens, UniProt P54278)
T1 construct: host or cells: SW620 human colorectal carcinoma cells
T1 sequence (P54278 1-862): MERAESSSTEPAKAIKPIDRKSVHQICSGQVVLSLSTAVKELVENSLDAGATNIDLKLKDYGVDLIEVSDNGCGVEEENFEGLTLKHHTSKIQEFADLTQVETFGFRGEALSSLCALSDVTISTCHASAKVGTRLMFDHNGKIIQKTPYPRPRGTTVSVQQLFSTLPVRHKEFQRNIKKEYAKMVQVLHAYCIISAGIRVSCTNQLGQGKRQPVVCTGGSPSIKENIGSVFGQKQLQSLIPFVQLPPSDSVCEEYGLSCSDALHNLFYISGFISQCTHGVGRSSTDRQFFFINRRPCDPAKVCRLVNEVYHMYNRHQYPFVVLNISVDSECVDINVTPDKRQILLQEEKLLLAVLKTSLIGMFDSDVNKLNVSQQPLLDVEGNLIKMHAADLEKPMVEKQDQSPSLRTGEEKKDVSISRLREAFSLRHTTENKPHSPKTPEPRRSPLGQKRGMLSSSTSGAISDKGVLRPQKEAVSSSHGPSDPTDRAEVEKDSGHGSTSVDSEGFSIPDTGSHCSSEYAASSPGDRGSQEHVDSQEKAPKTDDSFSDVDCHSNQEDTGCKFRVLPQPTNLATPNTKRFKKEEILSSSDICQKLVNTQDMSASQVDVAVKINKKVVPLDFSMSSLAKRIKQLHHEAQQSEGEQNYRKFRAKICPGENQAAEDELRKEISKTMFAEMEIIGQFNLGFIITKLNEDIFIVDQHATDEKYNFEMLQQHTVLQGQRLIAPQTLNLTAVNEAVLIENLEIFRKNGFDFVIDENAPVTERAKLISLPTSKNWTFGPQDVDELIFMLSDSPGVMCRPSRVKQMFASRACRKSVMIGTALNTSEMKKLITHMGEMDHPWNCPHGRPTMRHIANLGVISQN
Assay: PROTAC screening in SW620 human colorectal carcinoma cells, PMS2 protein level by JESS Western blot
Type: cell-based
Conditions: SW-620, 24 h, 1 uM compound, normalised to actin and DMSO control, Table A1
Procedure: PROTAC Screening Protocol Using SW620 Human Colorectal Carcinoma Cells
SVW620 cells (ATCC/[…]) were cultured in T75 Falcon flasks in culture media (F12/DMEM 1:1 media, 10% FCS, +L-G supplement). Cells were split twice a week, for a maximum of 6 weeks. Media was aspirated, and cells washed with 10 mL of sterile PBS. PBS was aspirated, and cells incubated with 1.5 mL TrypLE for up to 5 minutes at 37° C., 5% CO2. Once cells had detached, TrypLE was neutralised with 10 mL culture media and cells mixed 1:1 with Trypan blue and quantified using a Luna cell counter. Cells were then seeded into fresh T75 flasks with 1×10^6 cells and 10 mL culture media.
SW620 cells, cultured and counted as above, were used to seed 12 well plates at a density of 1.5×10^5 cells/well and incubated overnight at 37° C., 5% CO2. Test compounds were solubilized in DMSO to a stock concentration of 10 mM and serially diluted in DMSO and media to their test concentration; the final concentration of DMSO was 0.1% (v/v). Each concentration was tested in triplicate. SW620 cells were incubated with test compound for 24 hours at 37° C., 5% CO2. Media was aspirated from each well, and each well washed with 1 mL ice cold PBS. PBS was then aspirated, and 50 μL of cold lysis buffer (RIPA buffer supplemented with 1× protease inhibitors, Benzonase, MgCl) was added to each well; plates were then incubated on ice for 5 minutes. Cells were scraped using a pipette tip before being transferred to a fresh Eppendorf. Samples were spun at maximum speed in a benchtop centrifuge for 5 minutes at 4° C. and supernatant was then transferred to fresh tubes. Samples were stored at −80° C. until analysis.
Bicinchonininic acid (BCA) protein assay standards (2-0.125 mg/mL BSA) were prepared in advance. 6 μL of each standard was pipetted in duplicate into rows A and B of a 384-well assay plate. Test samples were diluted in lysis buffer (1:3-1:10) in a 384-well plate in duplicate. BCA Reagents were combined 50:1, Part A:Part B and 50 μL added to each well. Plates were incubated for 30 min at 37° C. in a plate incubator and read using a BCA protein 384 protocol on an EnSpire plate reader. Protein concentrations were calculated from a standard curve.
JESS Western Blot Protocol
Protein lysates were prepared using Protein Simple EZ standard pack reagents: 40 μL distilled H2O was added to a DTT tube (clear) and treated with 20 μL 10× sample buffer and 20 μL DTT to 5×MM tube (pink). 20 μL dH2O was added to biotinylated ladder tube (green).
Test samples were prepared by dilution to the required concentration (0.1 mg/mL) in 0.1× sample buffer. 1.25 μL 5× fluorescent master mix from the EZ standard pack was added to 5 μL sample for each lane to be loaded (e.g. 2.5 μL+10 μL if loading same sample into 2 wells). Samples were vortexed, briefly spun down and heated at 95° C. for 5 min in a PCR machine then vortexed again and briefly spun down before loading onto JESS cassettes (catalogue No: SM-W004) according to manufacturer's instructions (https://www.proteinsimple.com/technical_library.html?product=simplewestern&def_list=list). Protein expression was determined by the peak area of the target protein signal. Peak area of the target protein was normalised to peak area of the loading control (actin) and to DMSO control.

| remaining activity at 1 µM | SMILES |
| --- | --- |
| < 10% | Cc1ncsc1-c1ccc(CNC(=O)[C@@H]2C[C@@H](O)CN2C(=O)[C@@H](NC(=O)CCCCCC(=O)N2CCN(Cc3ccc4c(c3)CN(C(=O)c3c(O)cc(O)c(C)c3OCC3CCCCC3)C4)CC2)C(C)(C)C)cc1 [Example 26, (2S,4R)-1-[(2S)-2-[[7-[4-[[2-[2-(Cyclohexylmethoxy)-4,6-dihydroxy-3-methyl-benzoyl]isoindolin-5-yl]methyl]piperazin-1-yl]-7-oxo-heptanoyl]amino]-3,3-dimethyl-butanoyl]-4-hydroxy-N-[[4-(4-methylthiazol-5-yl)phenyl]methyl]pyrrolidine-2-carboxamide] |
| < 10% | Cc1ncsc1-c1ccc(CNC(=O)[C@@H]2C[C@@H](O)CN2C(=O)[C@@H](NC(=O)CCCCCCC(=O)N2CCN(Cc3ccc4c(c3)CN(C(=O)c3c(O)cc(O)c(C)c3OCC3CCCCC3)C4)CC2)C(C)(C)C)cc1 [Example 27, (2S,4R)-1-[(2S)-2-[[8-[4-[[2-[2-(Cyclohexylmethoxy)-4,6-dihydroxy-3-methyl-benzoyl]isoindolin-5-yl]methyl]piperazin-1-yl]-8-oxo-octanoyl]amino]-3,3-dimethyl-butanoyl]-4-hydroxy-N-[[4-(4-methylthiazol-5-yl)phenyl]methyl]pyrrolidine-2-carboxamide] |
| < 10% | Cc1ncsc1-c1ccc(CNC(=O)[C@@H]2C[C@@H](O)CN2C(=O)[C@@H](NC(=O)CCCCCCCC(=O)N2CCN(Cc3ccc4c(c3)CN(C(=O)c3c(O)cc(O)c(C)c3OCC3CCCCC3)C4)CC2)C(C)(C)C)cc1 [Example 28, (2S,4R)-1-[(2S)-2-[[9-[4-[[2-[2-(Cyclohexylmethoxy)-4,6-dihydroxy-3-methyl-benzoyl]isoindolin-5-yl]methyl]piperazin-1-yl]-9-oxo-nonanoyl]amino]-3,3-dimethyl-butanoyl]-4-hydroxy-N-[[4-(4-methylthiazol-5-yl)phenyl]methyl]pyrrolidine-2-carboxamide] |
| < 10% | Cc1ncsc1-c1ccc(CNC(=O)[C@@H]2C[C@@H](O)CN2C(=O)[C@@H](NC(=O)CCCCCCCCC(=O)N2CCN(Cc3ccc4c(c3)CN(C(=O)c3c(O)cc(O)c(C)c3OCC3CCCCC3)C4)CC2)C(C)(C)C)cc1 [Example 29, (2S,4R)-1-[(2S)-2-[[10-[4-[[2-[2-(Cyclohexylmethoxy)-4,6-dihydroxy-3-methyl-benzoyl]isoindolin-5-yl]methyl]piperazin-1-yl]-10-oxo-decanoyl]amino]-3,3-dimethyl-butanoyl]-4-hydroxy-N-[[4-(4-methylthiazol-5-yl)phenyl]methyl]pyrrolidine-2-carboxamide] |
| < 10% | Cc1ncsc1-c1ccc(CNC(=O)[C@@H]2C[C@@H](O)CN2C(=O)[C@@H](NC(=O)CCCCCCCCCC(=O)N2CCN(Cc3ccc4c(c3)CN(C(=O)c3c(O)cc(O)c(C)c3OCC3CCCCC3)C4)CC2)C(C)(C)C)cc1 [Example 30, (2S,4R)-1-[(2S)-2-[[11-[4-[[2-[2-(Cyclohexylmethoxy)-4,6-dihydroxy-3-methyl-benzoyl]isoindolin-5-yl]methyl]piperazin-1-yl]-11-oxo-undecanoyl]amino]-3,3-dimethyl-butanoyl]-4-hydroxy-N-[[4-(4-methylthiazol-5-yl)phenyl]methyl]pyrrolidine-2-carboxamide] |
